Measurements taken from US20170044150A1, “IDENTIFICATION OF COMPOUNDS WHICH INHIBIT ATG8-ATG3 PROTEIN-PROTEIN INTERACTION AND THEIR USE AS ANTIPARASITICAL AGENTS” (THE JOHNS HOPKINS UNIVERSITY, priority 2014, published 2017).
Like-named read-outs stand apart in the source and are kept apart here.

Tests used:
[1] = system: P. falciparum 3D7; assay: SYBR Green I growth inhibition assay, blood stage; type: cell-based; conditions: Plasmodium falciparum
Procedure: P. falciparum blood stage culturing. P. falciparum 3D7 and FCR3 cultures were maintained using modified, previously published methods at 37° C., 2% hematocrit of human red blood cells (Science 1976, 193, 673-675). Complete culture media consisted of sterile RPMI 1640 media (Life Technologies), supplemented with 10% human serum, 0.005% hypoxanthine, and buffered with final concentrations of 0.6% HEPES and 0.26% NaHCO3. The FCR3 strain was maintained at 3% CO2 and 5% O2, 92% N2 atmosphere, while the 3D7 strain was maintained at 5% CO2, 5% O2, 90% N2 atmosphere.
SYBR Green I growth inhibition assay. 10 μL of 10× compound diluted in RPMI 1640 media (Gibco) with a constant concentration of 1% DMSO was added to a 96 well plate (Costar), 90 μL of 1.5% ring stage, synchronized with 5% w/v sorbitol P. falciparum 3D7 parasites, 1% hematocrit, in culture media with 10% v/v human serum with 10 μg/mL gentamycin. Each compound concentration and 1% v/v DMSO controls were run in triplicate. Plates were incubated at 37° C. in 5% O2, 5% CO2 and 90% N2 for 72 hours. Plates were frozen, thawed, and incubated with 100-μL 2× SYBR green in lysis buffer (20 mM Tris pH 7.5, 5 mM EDTA, 0.008% Saponin, 0.08% TritonX-100) in the dark for at least one hour. Fluorescence was measured with a plate reader (HTS 7000, Perkin Elmer) at excitation/emission wavelengths of 485/535 nm.
Plasmodium parasite growth inhibition assay. P. falciparum 3D7 parasites were cultured as previously described (J Med Chem 57:4521-4531(2014)). Briefly, the parasites were cultured in 10% v/v human serum with 10 μg/mL gentamycin and synchronized with 5% w/v sorbitol. 1.5% ring stage parasites were added to 96 well plates (Costar) containing serial dilutions, performed in triplicate, of compound in RPMI 1640 media (Gibco). Plates were incubated at 37° C. in 5% O2, 5% CO2, and 90% N2 for 72 h. Plates were frozen, thawed, and incubated with 100 μL 2× SYBR green in lysis buffer (20 mM Tris pH 7.5, 5 mM EDTA, 0.008% Saponin, 0.08% TritonX-100) in the dark for 1 h. Fluorescence was measured with a plate reader (HTS 7000, PerkinElmer) at excitation/emission wavelengths of 485/535 nm.

[2] = system: P. falciparum 3D7-GFP; type: cell-based; conditions: for decrease in the proportion of infected hepatocytes (GFP+/PI- cells): 72 hours post infection
Procedure: In vitro infection of human hepatocytes with P. falciparum 3D7-GFP. The HC-04 cell line (ATCC, Manassas, Va., USA) was maintained in complete medium (IMDM containing 2.5% FCS, 100 units/ml penicillin, 100 μg/ml streptomycin and 2 mM L-glutamine, all from GIBCO®, Life Technologies, Grand Island, N.Y.). P. falciparum 3D7-GFP parasite strain (PLoS ONE 2010, 5, e9156) was propagated in the Parasitology Core facility, the Johns Hopkins Malaria Research Institute. In vitro infection of human hepatocytes was done as described previously (PLoS ONE 2013, 8, e75321). Briefly, salivary glands were sequestered from infected Anopheles gambiae mosquitoes at day 17 after exposure to infective blood meal and homogenates were separated on an OptiPrep™ Density Gradient (Sigma-Aldrich, St. Louis, Mo.) at 12,000×g for 10 minutes. Sporozoites were collected from the gradient interface, washed in complete medium, counted using a hemocytometer and incubated with HC-04 cells at 3:1 sporozoite to hepatocyte ratio for 2 hours at 37° C. […]
Detection of P. falciparum exoerythrocytic forms in vitro. HC-04 human hepatocyte cell line (ATCC, Manassas, Va., USA) was maintained in complete medium (IMDM containing 2.5% FCS, 100 units/ml penicillin, 100 μg/ml streptomycin and 2 mM L-glutamine, all from GIBCO®, Life Technologies, Grand Island, N.Y.). P. falciparum 3D7HT-GFP parasite strain (PLoS One. 5(2):e9156. doi:10.1371/journal.pone.0009156 (2010)) was propagated in the Parasitology Core facility of the Johns Hopkins Malaria Research Institute. In vitro infection of human hepatocytes, and detection and quantification of P. falciparum 3D7HT-GFP EEFs by flow cytometry were performed as previously described (PLoS One. 8(9):e75321. doi:10.1371/journal.pone.0075321 (2013)).

[3] = system: HC-04 cells; assay: HC-04 hepatocyte viability / cytotoxicity (Annexin-V, PI flow cytometry); type: cell-based, human; conditions: 30 μM
Procedure: Detection of Annexin-V positive and PI-positive cells in hepatocyte cultures was done by flow cytometry according to the manufacturer's instruction (Invitrogen™, Life Technologies, Grand Island, N.Y., USA).
Hepatocyte cytotoxicity assay. Hepatocyte cytotoxicity assays were carried out in triplicate at two concentrations of inhibitory compounds using HC-04 cells as previously described. Flow cytometry was used to assess two cytotoxicity markers via staining, namely propidium iodine (PI) and Annexin-V.

[4] = system: PfAtg8; assay: Immunoblot analysis of PfAtg8 in P. falciparum blood stage cultures; type: cell-based; conditions: for lipidation of PfAtg8: 12 hours
From the text: Immunoblot analysis of P. falciparum blood stage. […] RBCs were harvested with centrifugation, lysed with 0.2% saponin, and RBC lysate was removed through three 1× PBS washes. Parasites were harvested by centrifugation and washed in 1× PBS with Complete EDTA-free protease inhibitors (Roche) and lysed by repeated vortexing and boiling in SDS reducing sample buffer. […] HRP-conjugated secondary antibodies (Southern Biotech) were detected by SuperSignal West Femto (Thermo Scientific) or Amersham™ ECL™ Prime (GE Healthcare) chemiluminescent substrate. AP-conjugated secondary antibodies (EMD Millipore) were detected using NBT/BCIP (Promega) colorimetric stain. Total protein levels were visualized with ProAct™ Membrane Stain (Amresco) and quantified with ImageJ. Parasite morphology at time of harvesting was visualized with light microscopy at 100× magnification on Olympus BX53 system microscope (Olympus America, Inc.).

[5] = system: P. yoelii liver stage; conditions: screening concentration 10 μM; cited from earlier work
[6] = system: human cell lines; conditions: cited from earlier work
[7] = biological target: PfAtg8^CM (Plasmodium falciparum, UniProt Q8IJK2); assay: SPR direct binding of compound 1 to immobilized His12-PfAtg8^CM; set-up: other: 2-fold dilution series, highest 75 μM; fused on or other part: N-terminal His12 tag; species or system P. falciparum; conditions: 2-fold dilution series, highest 75 μM
Procedure: His12-PfAtg8^CM was injected over an NTA-chip (GE Healthcare) preconditioned with nickel, leading to capture of 3,000 response units (RUs). Running buffer contained 3% DMSO. A 2-fold-dilution series of compounds, highest concentration of 75 μM, was injected over PfAtg8 variants at 40 μL/minute.
Determination of the PTA binding site on PfAtg8. The inventors tested whether these compounds bound directly to PfAtg8 using SPR. PfAtg8^CM was immobilized onto an SPR Ni-NTA chip via a twelve histidine N-terminal tag. […] It was then sought to determine the binding site for the PTA compounds with in silico docking.

[8] = biological target: PfAtg8-PfAtg3 interaction (Plasmodium falciparum, UniProt Q8IJK2); type: binding, P. falciparum
[9] = biological target: T1, PfAtg8^CM (Plasmodium falciparum, UniProt Q8IJK2); assay: SPR binding of PfAtg8^CM to immobilized compound 8; set-up: species or system P. falciparum
T1 construct: rows headed: KD; other: immobilized compound
T1 sequence (Q8IJK2 1-124 C32I/C119S/C122S): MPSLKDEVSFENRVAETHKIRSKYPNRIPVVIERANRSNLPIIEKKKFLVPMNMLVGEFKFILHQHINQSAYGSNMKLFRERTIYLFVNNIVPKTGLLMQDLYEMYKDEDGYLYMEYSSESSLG
Procedure: (§1) Direct binding of compound 8 to PfAtg8^CM. Compound 8 was injected over a neutravidin-coated SPR chip (GE Healthcare) on one flowcell, with 130 RUs immobilized, while BACH was injected over a reference flowcell (150 RUs immobilized). His6-PfAtg8^CM, Human LC3, or His6-PfAtg3 was injected in duplicate in running buffer containing 10 mM HEPES pH 7.5, 150 mM NaCl, 0.05% P20. Protein was dissociated from the chip after each cycle with 10 μL injection of 20 mM HEPES pH 7.4, 1% w/v SDS regeneration solution.
(§2) Synthesis of a novel PTA derivative with a functional handle. […] A PTA-benzaldehyde derivative, 4-formyl-N-(4-pyridin-2-yl-1,3-thiazol-2-yl)benzamide (compound 7) was synthesized with a functional handle extending off the common hydrophobic ring system (Table 1, Scheme 1). Compound 7 was prepared from commercially available PTA and 4-formyl benzoic acid through a DCC-promoted amide coupling. Compound 7 can be tethered through a dialkoxyamine linker to a library of aldehydes and screened using our primary SPR competition assay against the PfAtg8-PfAtg3 interaction. In docking studies, compound 7 bound the W- and L-site of PfAtg8 in a fashion similar to compound 2, with the functional handle positioned towards the A-loop pocket (FIG. 7A). A gain in parasite selectivity for such bifunctional analogs is expected as the A-loop is missing in the human Atg8 homologues. […]

[10] = biological target: T2, hLC3 (Homo sapiens, UniProt Q9GZQ8); assay: SPR binding of hLC3 to immobilized compound 8
T2 construct: made in house
Procedure: as §1, §2

[11] = biological target: T3, PfAtg3 (Plasmodium falciparum, UniProt C0H519); assay: SPR binding of PfAtg3 to immobilized compound 8; conditions: data not shown
T3 construct: made in house
T3 sequence (C0H519 1-313): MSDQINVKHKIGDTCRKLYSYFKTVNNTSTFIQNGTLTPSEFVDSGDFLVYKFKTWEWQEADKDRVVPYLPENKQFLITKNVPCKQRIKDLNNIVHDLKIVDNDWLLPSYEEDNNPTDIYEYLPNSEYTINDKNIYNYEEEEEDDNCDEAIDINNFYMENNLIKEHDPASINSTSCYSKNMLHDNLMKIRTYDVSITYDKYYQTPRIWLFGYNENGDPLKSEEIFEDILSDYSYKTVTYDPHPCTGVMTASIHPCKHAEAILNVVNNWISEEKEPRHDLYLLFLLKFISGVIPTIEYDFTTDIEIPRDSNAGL
Procedure: as §1, §2

[12] = 3D7, no asterisk, read-out: IC50 Blood stage

SMILES	IC50 [1, 12]	IC50 ([1]; 3D7, third experiment, read-out: IC50)	IC50 ([1]; 3D7, two of three independent experiments, read-out: IC50)	IC50 ([1]; 3D7, two to three experiments, read-out: average IC50)	intensity of GFP fluorescence ([2]; 3 μM and 30 μM, 72 hours)	decrease in the proportion of infected hepatocytes (GFP+/PI- cells) ([2]; 3 μM)	decrease in the proportion of infected hepatocytes (GFP+/PI- cells) ([2]; 30 μM)	cell death in HC-04 cells [3]	lipidation of PfAtg8 ([4]; 5 μM)	lipidation of PfAtg8 ([4]; 25 μM and 50 μM)	PfAtg8 protein levels ([4]; 50 μM, five hours)	mobility of PfAtg8 ([4]; 50 μM, five hours)	inhibition in P. yoelii liver stage cultures [5]	reported cytotoxicity in human cell lines [6]	SPR response, direct binding to PfAtg8^CM [7]	LEAN (SPR) ([8]; -log (IC50)/number of heavy atoms)	IC50 ([8]; read-out: IC50 SPR, inhibition of PfAtg8-PfAtg3 interaction)	Kd [9]	Kd [10]	binding of recombinant PfAtg3 [11]
Cc1ccc(Nc2nc(-c3ccccn3)cs2)cc1 [Compound 1, N-(4-methylphenyl)-4-pyridin-2-yl-1,3-thiazol-2-amine]	1.47 µM	3.3 µM	0.768 µM	1.61 ± 1.47 µM	dose-dependent reduction	but not 3 μM	~50%	did not observe cell death	dose-dependent decrease in lipidation	unlipidated PfAtg8 is exclusively detected	drastic increase	shift in mobility, likely corresponding to the unlipidated form of PfAtg8	≤ 50%	much lower than that of compounds 2 or 3	dose-dependent increase in SPR response					
O=C(CCCC[C@H]1SC[C@H]2NC(=O)N[C@H]21)NCCCCCC(=O)NNCc1ccc(C(=O)Nc2nc(-c3ccccn3)cs2)cc1 [Compound 8, 4-[[2-[6-[5-[(3aR,4R,6aS)-2-Oxo-1,3,3a,4,6,6a-hexahydrothieno[3,4-d]imidazol-4-yl]pentanoylamino]hexanoyl]hydrazinyl]methyl]-N-(4-pyridin-2-yl-1,3-thiazol-2-yl)benzamide]	1.48 µM															0.22	2.66 µM	0.54 µM	18 µM	did not bind
